According to PubChem BioAssay AID2060612 (Molecular Pharmacology Branch, DTP, NCI, 2025):
“And” between values parts separate entries of the source, which are not always exact repeats. Identical values can stand only once.

Tested on: 565232-114-T-J1-PDC complex spheroid viability
Assay: Anticancer human tumor 565232-114-T-J1-PDC patient-derived bladder carcinoma cell line growth inhibition [CLK]
Settings: for viability, T/C: stronger effect = lower value
Method in brief: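 Multi-cell-type spheroids combined patient-derived tumor cells with HUVEC endothelial cells and human mesenchymal stem cells. Paired agents were dosed in half-log steps down from about clinical Cmax, or from 10 microM where Cmax was unknown.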

[1] = curve of first compound, second compound 0.0316 µM
[2] = curve of first compound, second compound 0.1 µM
[3] = curve of first compound, second compound 0.316 µM
[4] = curve of first compound, second compound 1 µM
[5] = curve of first compound, second compound 3.16 µM
[6] = curve of first compound, second compound 10 µM
[7] = second compound 0.0316 µM, first compound 0.0316 µM
[8] = second compound 0.0316 µM, first compound 0.1 µM
[9] = second compound 0.0316 µM, first compound 0.316 µM
[10] = second compound 0.0316 µM, first compound 1 µM
[11] = second compound 0.0316 µM, first compound 3.16 µM
[12] = second compound 0.0316 µM, first compound 10 µM
[13] = second compound 0.1 µM, first compound 0.0316 µM
[14] = second compound 0.1 µM, first compound 0.1 µM
[15] = second compound 0.1 µM, first compound 0.316 µM
[16] = second compound 0.1 µM, first compound 1 µM
[17] = second compound 0.1 µM, first compound 3.16 µM
[18] = second compound 0.1 µM, first compound 10 µM
[19] = second compound 0.316 µM, first compound 0.0316 µM
[20] = second compound 0.316 µM, first compound 0.1 µM
[21] = second compound 0.316 µM, first compound 0.316 µM
[22] = second compound 0.316 µM, first compound 1 µM
[23] = second compound 0.316 µM, first compound 3.16 µM
[24] = second compound 0.316 µM, first compound 10 µM
[25] = second compound 1 µM, first compound 0.0316 µM
[26] = second compound 1 µM, first compound 0.1 µM
[27] = second compound 1 µM, first compound 0.316 µM
[28] = second compound 1 µM, first compound 1 µM
[29] = second compound 1 µM, first compound 3.16 µM
[30] = second compound 1 µM, first compound 10 µM
[31] = second compound 3.16 µM, first compound 0.0316 µM
[32] = second compound 3.16 µM, first compound 0.1 µM
[33] = second compound 3.16 µM, first compound 0.316 µM
[34] = second compound 3.16 µM, first compound 1 µM
[35] = second compound 3.16 µM, first compound 3.16 µM
[36] = second compound 3.16 µM, first compound 10 µM
[37] = second compound 10 µM, first compound 0.0316 µM
[38] = second compound 10 µM, first compound 0.1 µM
[39] = second compound 10 µM, first compound 0.316 µM
[40] = second compound 10 µM, first compound 1 µM
[41] = second compound 10 µM, first compound 3.16 µM
[42] = second compound 10 µM, first compound 10 µM
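Also: spheroids exposed to compounds for 7 days before readout.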
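For viability, T/C in this document: 100% = DMSO vehicle wells with luminescence normalized to vehicle control.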

For `COc1cccc2c1C(=O)c1c(O)c3c(c(O)c1C2=O)CC(O)(C(=O)CO)CC3OC1CC(N)C(O)C(C)O1` (stereo unspecified) + CNC(=O)c1ccc(Nc2nc(OC3CCCC3)c3c(-c4ccc5nc(C)oc5c4)c[nH]c3n2)c(OC)c1, the IC50 [1] was 115 nM, the IC50 [2] was under 31.6 nM and the IC50 [3] was under 31.6 nM. For the same compound, the IC50 [4] was under 31.6 nM, the IC50 [5] was under 31.6 nM and the IC50 [6] was under 31.6 nM. For the same compound, the viability, T/C [7] was 96.7%, the viability, T/C [8] was 55.5% and the viability, T/C [9] was 10%. For the same compound, the viability, T/C [10] was 0.25%, the viability, T/C [11] was 0.24% and the viability, T/C [12] was 0.28%. It also gave a viability, T/C [13] of 44.4%, a viability, T/C [14] of 22.9% and a viability, T/C [15] of 7.66%. For the same compound, the viability, T/C [16] was 0.28%, the viability, T/C [17] was 0.22% and the viability, T/C [18] was 0.23%. It also gave a viability, T/C [19] of 21.8%, a viability, T/C [20] of 18.6% and a viability, T/C [21] of 5.6%. It also gave a viability, T/C [22] of 0.86%, a viability, T/C [23] of 0.19% and a viability, T/C [24] of 1.3%. It also gave a viability, T/C [25] of 15.9%, a viability, T/C [26] of 12.4% and a viability, T/C [27] of 3.59%. The viability, T/C [28] was 0.42%, the viability, T/C [29] was 0.14% and the viability, T/C [30] was 0.26%. The viability, T/C [31] was 12.7%, the viability, T/C [32] was 9.58% and the viability, T/C [33] was 2.15%. The viability, T/C [34] was 0.1%, the viability, T/C [35] was 0.69% and the viability, T/C [36] was 0.49%. The viability, T/C [37] was 13.7%, the viability, T/C [38] was 9.24% and the viability, T/C [39] was 3.57%. The viability, T/C [40] was 0.73%, the viability, T/C [41] was 1.86% and the viability, T/C [42] was 0.29%.

`COC1C=CCC(C)C(C)S(=O)(=O)NC(=O)c2ccc3c(c2)N(CC2CCC21)CC1(CCCc2cc(Cl)ccc21)CO3` (stereo unspecified) + CNC(=O)c1ccc(Nc2nc(OC3CCCC3)c3c(-c4ccc5nc(C)oc5c4)c[nH]c3n2)c(OC)c1 gave an IC50 [1] of 695 nM, an IC50 [2] of under 31.6 nM and an IC50 [3] of under 31.6 nM. It also gave an IC50 [4] of under 31.6 nM, an IC50 [5] of under 31.6 nM and an IC50 [6] of under 31.6 nM. For the same compound, the viability, T/C [7] was 89.9%, the viability, T/C [8] was 103% and the viability, T/C [9] was 85.8%. The viability, T/C [10] was 33.2%, the viability, T/C [11] was 6.83% and the viability, T/C [12] was 3.49%. The viability, T/C [13] was 43.1%, the viability, T/C [14] was 36.9% and the viability, T/C [15] was 24.7%. It also gave a viability, T/C [16] of 19.2%, a viability, T/C [17] of 7.48% and a viability, T/C [18] of 5.14%. For the same compound, the viability, T/C [19] was 24.4%, the viability, T/C [20] was 19.1% and the viability, T/C [21] was 16.4%. The viability, T/C [22] was 9.76%, the viability, T/C [23] was 5.62% and the viability, T/C [24] was 3.86%. For the same compound, the viability, T/C [25] was 15.8%, the viability, T/C [26] was 14.5% and the viability, T/C [27] was 13.3%. It also gave a viability, T/C [28] of 7.06%, a viability, T/C [29] of 4.08% and a viability, T/C [30] of 2.86%. For the same compound, the viability, T/C [31] was 11.4%, the viability, T/C [32] was 11% and the viability, T/C [33] was 7.5%. For the same compound, the viability, T/C [34] was 4.35%, the viability, T/C [35] was 2.97% and the viability, T/C [36] was 3%. For the same compound, the viability, T/C [37] was 14.1%, the viability, T/C [38] was 9.12% and the viability, T/C [39] was 6.08%. For the same compound, the viability, T/C [40] was 5.45%, the viability, T/C [41] was 3.56% and the viability, T/C [42] was 3.09%.

With `Nc1ccn(C2OC(CO)C(O)C2(F)F)c(=O)n1` (stereo unspecified) the viability, T/C (compound 0.0316 µM) was 95.5% and 50.3%, the viability, T/C (compound 0.1 µM) was 57% and 17.7% and the viability, T/C (compound 0.316 µM) was 36.3% and 10.3%. For the same compound, the viability, T/C (compound 1 µM) was 35.6% and 9.39%, the viability, T/C (compound 3.16 µM) was 37.5% and 13% and the viability, T/C (compound 10 µM) was 39.9% and 13.2%. The IC50 (curve of compound) was 151 nM and 31.8 nM.
